We go through three compounds from patent publication US8492368B2 (priority 2011, dated 2013).

For one series, the system named is rats suffering from TBI. The note with it: 16 mg/kg, 72 hours post-injury, moderate to severe brain injury, FIG. 1, p<0.05; cited from earlier work.
In the next series the test system is traumatic brain injury. The note with it: cited from earlier work; for factors of cell death, brain swelling and inflammation: TBI.
Another series has as its system P-glycoprotein (PGP). As to the kind of experiment: P-glycoprotein protein abundance in penumbral region of injured brain, FIG. 6. It is filed as in vivo, rodents. The note with it: 72 hours post-injury, vs vehicle and sham, p<0.05, FIG. 6.
The subject of series [1] is rats that have suffered a concussion (mTBI). Briefly: Morris Water Maze latency to platform in mTBI (concussion) model, FIG. 8. The note with it: vs vehicle-injured rats, p<0.05. It is filed as in vivo.
The next series deals with severe TBI patients. The note with it: six months; cited from earlier work.
For series [2], the system named is male reproductive function. The note with it: males; cited from earlier work.
The test system of the next series is glutathione reductase. The note with it: 72 hours post-injury, compared to all other groups, FIG. 2, p<0.01; cited from earlier work.
The target of series [3] is T1, progesterone receptor (PR) (Homo sapiens, UniProt P06401).
T1 sequence (P06401 1-933): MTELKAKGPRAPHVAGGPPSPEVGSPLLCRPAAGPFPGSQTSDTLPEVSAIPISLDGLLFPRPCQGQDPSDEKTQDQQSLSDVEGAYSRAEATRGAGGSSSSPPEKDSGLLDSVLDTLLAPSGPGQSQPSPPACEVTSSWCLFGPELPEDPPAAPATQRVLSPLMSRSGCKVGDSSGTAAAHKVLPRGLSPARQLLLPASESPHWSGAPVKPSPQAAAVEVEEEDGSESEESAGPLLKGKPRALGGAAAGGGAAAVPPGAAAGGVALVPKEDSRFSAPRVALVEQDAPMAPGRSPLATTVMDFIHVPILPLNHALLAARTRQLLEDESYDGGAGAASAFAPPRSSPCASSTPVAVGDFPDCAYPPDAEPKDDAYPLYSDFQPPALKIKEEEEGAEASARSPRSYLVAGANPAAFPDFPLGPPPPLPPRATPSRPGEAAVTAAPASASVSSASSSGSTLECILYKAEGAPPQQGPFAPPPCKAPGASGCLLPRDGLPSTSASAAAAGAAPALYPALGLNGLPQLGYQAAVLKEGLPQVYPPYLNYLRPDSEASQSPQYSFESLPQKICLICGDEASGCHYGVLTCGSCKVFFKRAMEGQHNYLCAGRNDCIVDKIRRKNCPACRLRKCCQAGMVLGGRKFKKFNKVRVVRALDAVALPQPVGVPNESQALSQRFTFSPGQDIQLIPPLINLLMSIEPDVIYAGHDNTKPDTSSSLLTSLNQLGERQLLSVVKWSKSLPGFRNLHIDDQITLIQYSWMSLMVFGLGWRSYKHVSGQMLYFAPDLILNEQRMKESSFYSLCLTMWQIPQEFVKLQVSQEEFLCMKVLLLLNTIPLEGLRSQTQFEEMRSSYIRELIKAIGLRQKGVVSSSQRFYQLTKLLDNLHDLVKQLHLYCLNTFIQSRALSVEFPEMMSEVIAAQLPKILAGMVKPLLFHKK
The note with it: cited from earlier work.

As to `CC(=O)[C@H]1CC[C@H]2[C@@H]3CC[C@H]4C[C@H](O)CC[C@]4(C)[C@H]3CC[C@]12C` [ALLO, allopregnanolone], in the series with rats suffering from TBI, the “brain water content (measure of edema)” value is reported as “normalizes brain water content”. Moreover, the “factors of cell death (caspase-3) and gliosis (GFAP)” value with traumatic brain injury (following injury) is recorded as “decreased”.

`CC(=O)[C@H]1CC[C@H]2[C@@H]3CCC4=CC(=O)CC[C@]4(C)[C@H]3CC[C@]12C` [Prog, progesterone]: in the series with P-glycoprotein (PGP), the “protein abundance of P-glycoprotein (PGP)” value is given as “increase”. For the same compound, in series [1] (15 minutes post mTBI (1 hour post)), the “latency to platform, post-acute administration” value is listed as “decreases latency to platform”. Besides, in series [1] (15 minutes prior to mTBI (1 hour prior)), the “latency to platform, prophylactic administration” value was “decreases latency to platform”. Besides, the “brain water content (measure of edema)” value with rats suffering from TBI is on record as “normalizes brain water content”. For the same compound, in the series on severe TBI patients, the neurological outcomes long-term is on record as “better neurological outcomes”. Moreover, in series [2], the “conversion of testosterone to dihydrotestosterone” value is “inhibits”, the “size of reproductive organs” value is “reduces” and the spermatogenesis entry was “suppresses”. For the same compound, the “factors of cell death, brain swelling and inflammation” value in the series with traumatic brain injury is “equivalently reduce”. The edema result with traumatic brain injury (both rodent sexes following injury) is on record as “effectively attenuates”. The “genes promoting the inflammatory cascade: Bcl-2, IL-1β and Cxcl-10” value with traumatic brain injury (following TBI, previous study) is recorded as “down-regulated”. In the series on traumatic brain injury (following injury), the “factors of cell death (caspase-3) and gliosis (GFAP)” value is “decreased”; the “inflammatory factors (TNF-α and IL-1β)” value is “inhibiting”. Also, the “Neurological Severity Score (motor and cognitive functioning)” value in the series with traumatic brain injury (rats following injury) is listed as “significant improvements”.

In the case of `CC(=O)[C@@H]1CC[C@@H]2[C@H]3CCC4=CC(=O)CC[C@@]4(C)[C@@H]3CC[C@]21C` [ent-Prog, ent-progesterone], the “protein abundance of P-glycoprotein (PGP)” value in the series with P-glycoprotein (PGP) is “increase”. The “brain water content (measure of edema)” value in the series on rats suffering from TBI is given as “normalizes brain water content”. Besides, the “anti-oxidant activity of glutathione reductase” value with glutathione reductase is “significantly increases”. The “activation of PR-mediated transcription” value in series [3] is “does not activate”. In addition, the “factors of cell death, brain swelling and inflammation” value in the series with traumatic brain injury is recorded as “equivalently reduce”.
